Results as given in US20240390434A1, “PROBIOTIC ENHANCERS AND USES THEREOF” (Blis Technologies Limited, priority 2021, published 2024).

Tested on: indicator strains
Assay: Deferred antagonism assay, producer S. salivarius K12: total strains inhibited
Assay type: cell-based
Conditions: K12
Method: 1-2 producer strain colonies were transferred from a stock plate into 900 μL of suspension solution using a fresh cotton swab. Following this, suspensions were vortexed, and a sample was inoculated onto solid culture media using a fresh cotton swab. The inoculation was a streak that runs diametrically across the agar plate in a 1.5 cm wide strip. The plate was then incubated. Following incubation all visible colonies were removed by swabbing them from the agar surface. The plates were then treated with chloroform by dispensing 2 ml of chloroform onto 4 cm×4 cm piece of cloth and sealing the inverted agar plate on top for 30 minutes. The plates were then air dried for 30 minutes following chloroforming. 1-2 indicator strain colonies were then transferred from a stock plate into complementary suspension solution. The suspensions were then vortexed, and a sample was inoculated onto the same agar surface. These samples were streaked in a perpendicular direction to the initial producer streak.
Each indicator streak was prepared with fresh a suspension containing cells from a corresponding stock plate containing the indicator strain of interest. Indicator strains suspension samples were transferred using a fresh cotton swab. Results were measured by qualitatively reviewing the subsequent (if any) sizes of the zones of inhibition (ZOI) of indicator strain colony growth. A positive result is when there is a distinctive reduction or complete inhibition of indicator colony growth on the culture medium.
CABCa agar plates containing various concentrations of saccharide were prepared according to the methods described in Method 1. Producer strains were transferred from stock agar plates into 900 μL THB using a fresh cotton swab. A plastic spread plater was cut to approximately 1.2 cm width and then dipped into ethanol and left to air dry to ensure sterility. A 100 μL sample of the producer strain suspension was then dispensed onto the agar surface in a straight line running diametrically across the agar surface in (approximately) 20 μL spots. The spots were spaced approximately 1.5 cm apart from each other. The plastic spreader was then used to evenly distribute the spots across the agar surface in a 1.5 cm wide strip. This step was taken to ensure an even producer streak was inoculated onto the agar surface and provided an approximate measure of the initial inoculum concentration. Separate plastic spreaders were used for samples containing different producer strains. The samples were left to soak into the agar surface until there was no visible liquid remaining on the agar surface (approximately 20 minutes). Following producer streak preparations, the deferred antagonism assay protocol was followed as per Method 2. Results were recorded by measuring the size of the zone of inhibition (ZOI) in mm.
A dose response assay was carried out according to method 3 above, except a 1.2 cm streak was used. For the individual saccharide testing the pH of the producer streak was adjusted after the growth of producer to change the acidic conditions.
A deferred antagonism assay was conducted using K12 or M18 raw ingredient suspended in Todd Hewitt broth (THB). This was spread as a 1.2 cm streak containing approximately 1-2×10^6 cfu down the middle of a CABCa control or CABCa galactose supplemented test plate. After 18 hrs growth at 37° C. with 5% CO2, bacterial growth was removed, and the pH of the agar in the initial streak was measured and adjusted to a pH of 6.5-7.5 using 0.5M sodium carbonate pH11 before sterilizing the agar surface using chloroform vapor. Bacterial test strains were suspended in i-THB before being swabbed across the plates perpendicular to the initial streak. Plates were incubated for a further 18 hrs incubation at 37° C. with 5% CO2 before measuring (mm) any zones of inhibition for each test strain, […]

In the case of O=C(CO)[C@@H](O)[C@H](O)[C@H](O)CO [Fructose, D-(−) Fructose, reference compound], the Total strains inhibited (saccharide 3.3% w/v) is reported as 0/3 and the Total strains inhibited (saccharide range 0.83%-3.3% w/v) is reported as 0/3.
